Test results: patent publication US8912180B2, “Heterocyclic compound” (Astellas Pharma Inc., priority 2010, dated 2014)
Structures can show the parent of a compound that is named as a salt.

What was measured:
IL-2 production = experiment: Rat in vivo IL-2 production inhibition test (Concanavalin A induced); details: 10 mg/kg oral, 2 hours before Concanavalin A 15 mg/kg iv; blood IL-2 at 3 hours, vs vehicle control; male LEW rats
Description: 3. Rat In Vivo IL-2 Production Inhibition Test
For the experiment, male LEW/CrlCrlj rats (Charles River Laboratories, Japan, Inc.) (6-week old, body weight 130 to 180 g) were used. The test compound was suspended in a 0.5% methyl cellulose solution and orally administered at 5 mL/kg. IL-2 production was induced by tail vein injection of Concanavalin A (Funakoshi Corporation, Catalogue No. L-1000) at a dose of 15 mg/kg.
The test was carried out according to the protocol shown below. At 2 hours or 16 hours before administration of Concanavalin A, the test compound was orally administered to rats. At 3 hours after administration of Concanavalin A, blood was collected. The IL-2 concentration in blood was quantified using an ELISA kit (R&D Systems, Inc., Catalogue No. DY502E). An inhibition rate was calculated from the amount of IL-2 produced in a group administered with the test compound with respect to the amount of the IL-2 produced in a control group administered with a vehicle.

[1] = system: Spleen cells prepared from male LEW/CrlCrlj rats (B cell proliferation); experiment: Rat B cell proliferation inhibition test (anti-rat IgM, [3H]thymidine); type: cell-based; details: anti-rat IgM 3 μg/well, 48 hours culture
Description: 4. Rat B Cell Proliferation Inhibition Test
Spleen cells (1.0×10^5 cells/well) prepared from male LEW/CrlCrlj rats (Charles River Laboratories, Japan, Inc.), mouse F(ab′)2 fragment anti-rat IgM (3 μg/well, SouthernBiotech Associates, Inc., Catalogue No. 3082-14) and the test compound dissolved in DMSO (final DMSO concentration 0.1%) were mixed in a 96-well plate using a 10% FCS-containing RPMI-1640 culture medium (total 200 μL). They were cultured in a CO2 incubator for 48 hours and [^3H]thymidine (925 GBq/mmol, Moravek Biochemicals, Inc., Catalogue No. MT6038) was added thereto at 0.037 MBq/well at 4 hours before completion of culture. Cells were harvested in a GF/C glass filter using a cell harvester, and a radioactivity on the filter was measured using a liquid scintillation counter.

human PI3Kδ enzyme = biological target: T1, human PI3Kδ enzyme (Homo sapiens, UniProt O00329); experiment: PI3Kδ enzyme inhibitory activity (PI3-Kinase HTRF Assay kit); type: biochemical; details: human PI3Kδ 10 ng/well, ATP 30 μM, PIP2 10 μM, room temperature 30 minutes
T1 construct: purchased Millipore Corporation 14-604
Description: 1. PI3Kδ Enzyme Inhibitory Activity
For the experiment, a PI3-Kinase HTRF Assay kit (Millipore Corporation, Catalogue No. 33-016) and a human PI3Kδ enzyme (Millipore Corporation, Catalogue No. 14-604) were used. The measurement method was in accordance with the appended instructions. The overview thereof is as follows.
PI3Kδ (10 ng/well), phosphatidylinositol-4,5-bisphosphate (10 μM), ATP (30 μM), and the test compound were mixed in a 384-well plate (total 20 μL), and incubated at room temperature for 30 minutes. EDTA and biotinylated phosphatidylinositol-3,4,5-triphosphate were added thereto to stop the reaction. Thereafter, a Europium labeled anti-GST antibody, a GST bond GRP1 PH domain, and streptavidin-APC were added thereto, followed by incubation overnight. An HTRF ratio was measured using an HTRF plate reader.

Human PI3Kα = biological target: T2, Human PI3Kα (Homo sapiens, UniProt P42336); experiment: PI3Kα enzyme inhibitory activity (Kinase-Glo Plus luminescence); type: biochemical; details: human PI3Kα 12 ng/well, phosphatidylinositol 0.2 μg/well, 37° C. 3 hours
T2 construct: purchased Millipore Corporation 14-602
Description: 2. PI3Kα Enzyme Inhibitory Activity
Human PI3Kα (12 ng/well, Millipore Corporation, Catalogue No. 14-602), phosphatidylinositol (0.2 μg/well), and the test compound were mixed in a 384-well plate in a reaction buffer (50 mM Hepes, 10 mM NaCl, 10 mM MgCl2, 2 mM EGTA, 2 mM DTT, pH 7.3) (total 10 μl), and incubated at 37° C. for 3 hours. After the reaction, 10 μL of a Kinase-Glo Plus reagent (Promega, Catalogue No. V3772) was added thereto, and a luminescence was measured with a luminometer.

T1 sequence (O00329 whole entry): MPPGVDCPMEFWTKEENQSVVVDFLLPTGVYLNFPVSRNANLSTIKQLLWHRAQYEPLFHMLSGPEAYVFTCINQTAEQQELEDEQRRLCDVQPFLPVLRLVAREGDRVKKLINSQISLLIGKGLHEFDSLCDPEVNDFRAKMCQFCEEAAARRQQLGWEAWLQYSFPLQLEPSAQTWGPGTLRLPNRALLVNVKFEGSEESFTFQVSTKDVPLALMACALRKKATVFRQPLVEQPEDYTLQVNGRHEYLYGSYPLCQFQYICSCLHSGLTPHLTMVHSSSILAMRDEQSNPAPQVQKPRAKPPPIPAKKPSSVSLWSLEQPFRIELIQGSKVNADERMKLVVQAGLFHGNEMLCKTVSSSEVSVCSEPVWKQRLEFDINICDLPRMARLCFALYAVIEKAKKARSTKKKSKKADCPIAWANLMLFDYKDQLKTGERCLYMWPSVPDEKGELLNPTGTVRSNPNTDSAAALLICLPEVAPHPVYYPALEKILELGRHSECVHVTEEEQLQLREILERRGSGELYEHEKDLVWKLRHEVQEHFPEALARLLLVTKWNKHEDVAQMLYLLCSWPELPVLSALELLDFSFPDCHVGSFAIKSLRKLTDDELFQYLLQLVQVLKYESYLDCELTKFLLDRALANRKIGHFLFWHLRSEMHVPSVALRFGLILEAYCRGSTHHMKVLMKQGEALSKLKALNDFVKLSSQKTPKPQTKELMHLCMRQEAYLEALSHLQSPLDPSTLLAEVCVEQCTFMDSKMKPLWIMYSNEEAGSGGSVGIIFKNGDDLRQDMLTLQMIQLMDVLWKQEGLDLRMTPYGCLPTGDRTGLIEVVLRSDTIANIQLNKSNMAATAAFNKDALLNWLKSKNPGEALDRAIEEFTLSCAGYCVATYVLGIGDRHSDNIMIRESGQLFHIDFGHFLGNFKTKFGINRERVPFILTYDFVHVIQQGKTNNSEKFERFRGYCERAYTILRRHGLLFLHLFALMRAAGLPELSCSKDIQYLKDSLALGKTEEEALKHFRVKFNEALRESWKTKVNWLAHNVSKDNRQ
T1 sequence (P27986 whole entry partner): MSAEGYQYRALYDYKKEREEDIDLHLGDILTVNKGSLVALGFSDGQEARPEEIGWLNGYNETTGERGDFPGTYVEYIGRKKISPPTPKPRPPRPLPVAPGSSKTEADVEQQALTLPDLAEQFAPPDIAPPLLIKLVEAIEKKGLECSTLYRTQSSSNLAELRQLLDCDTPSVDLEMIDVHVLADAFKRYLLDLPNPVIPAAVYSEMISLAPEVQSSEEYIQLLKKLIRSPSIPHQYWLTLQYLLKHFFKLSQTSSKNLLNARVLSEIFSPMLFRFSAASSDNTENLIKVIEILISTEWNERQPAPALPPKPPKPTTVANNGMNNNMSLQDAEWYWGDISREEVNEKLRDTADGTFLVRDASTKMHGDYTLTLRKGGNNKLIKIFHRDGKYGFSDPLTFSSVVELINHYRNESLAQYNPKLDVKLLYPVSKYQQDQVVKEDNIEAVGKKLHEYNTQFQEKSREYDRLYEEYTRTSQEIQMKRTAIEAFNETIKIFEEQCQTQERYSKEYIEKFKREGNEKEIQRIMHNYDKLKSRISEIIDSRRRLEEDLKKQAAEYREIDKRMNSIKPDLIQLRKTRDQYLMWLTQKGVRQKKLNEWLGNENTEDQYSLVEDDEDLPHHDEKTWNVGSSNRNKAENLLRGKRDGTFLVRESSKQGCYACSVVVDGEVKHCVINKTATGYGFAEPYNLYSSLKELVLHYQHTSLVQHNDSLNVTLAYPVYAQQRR
T2 sequence (P42336 whole entry): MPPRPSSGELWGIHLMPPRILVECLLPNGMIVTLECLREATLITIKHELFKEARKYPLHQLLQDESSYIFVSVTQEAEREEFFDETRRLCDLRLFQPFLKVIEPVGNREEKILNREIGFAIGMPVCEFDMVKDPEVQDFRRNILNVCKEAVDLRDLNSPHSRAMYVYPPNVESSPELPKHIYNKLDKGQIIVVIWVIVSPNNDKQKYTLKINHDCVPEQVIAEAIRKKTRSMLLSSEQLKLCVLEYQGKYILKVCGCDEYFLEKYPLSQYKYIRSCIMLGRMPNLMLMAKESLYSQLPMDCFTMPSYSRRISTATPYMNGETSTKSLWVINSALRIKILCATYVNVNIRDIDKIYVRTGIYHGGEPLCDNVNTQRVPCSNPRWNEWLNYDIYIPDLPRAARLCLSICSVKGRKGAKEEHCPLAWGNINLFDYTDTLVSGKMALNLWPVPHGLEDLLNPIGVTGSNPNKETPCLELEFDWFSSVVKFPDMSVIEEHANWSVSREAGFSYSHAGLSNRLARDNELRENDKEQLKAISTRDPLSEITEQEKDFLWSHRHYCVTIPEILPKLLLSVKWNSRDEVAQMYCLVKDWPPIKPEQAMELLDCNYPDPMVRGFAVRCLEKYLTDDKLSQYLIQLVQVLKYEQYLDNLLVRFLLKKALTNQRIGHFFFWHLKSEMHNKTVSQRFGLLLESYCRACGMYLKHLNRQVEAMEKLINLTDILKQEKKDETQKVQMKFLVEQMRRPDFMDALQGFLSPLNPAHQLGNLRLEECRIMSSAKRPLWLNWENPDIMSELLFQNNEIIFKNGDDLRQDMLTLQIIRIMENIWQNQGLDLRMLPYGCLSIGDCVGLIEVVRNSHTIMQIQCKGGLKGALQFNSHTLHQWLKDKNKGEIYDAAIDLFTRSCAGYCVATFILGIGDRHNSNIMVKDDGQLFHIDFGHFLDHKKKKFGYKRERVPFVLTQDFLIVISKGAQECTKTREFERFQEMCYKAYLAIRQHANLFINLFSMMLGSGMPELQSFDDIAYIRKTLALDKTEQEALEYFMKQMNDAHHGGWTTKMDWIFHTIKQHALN
T2 sequence (P27986 whole entry partner): as the sequence (P27986 whole entry partner) above

Structure (SMILES)	IC50 (human PI3Kδ enzyme) [nM]	IC50 (Human PI3Kα) [nM]	inhibitory activity (IL-2 production inhibition rate) (IL-2 production) [%]	IC50 [1] [nM]
FC(F)c1nc2ccccc2n1-c1cc(N2CCOCC2)nc(NCC2CCN(C3CCOCC3)CC2)n1 [Example 10]	5.8	> 3000	77	2.9
OCC1CCC(N2CCC(CNc3nc(N4CCOCC4)cc(-n4c(C(F)F)nc5ccccc54)n3)CC2)CC1 (stereo not drawn) [Example 29]	45	> 3000	51	–
CC(=O)N1CCC(N2CCC(CNc3nc(N4CCOCC4)cc(-n4c(C(F)F)nc5ccccc54)n3)CC2)CC1 [Example 33]	11	> 3000	75	–
C[C@@H]1COCCN1c1cc(-n2c(C(F)F)nc3ccccc32)nc(NCC2CCN(C3CCOCC3)CC2)n1 [Example 37]	20	1900	81	1.52
FC(F)c1nc2ccccc2n1-c1cc(N2CCOCC2)nc(NCC2CCN([C@H]3CC[C@H](F)CC3)CC2)n1 [Example 43-1, 4-[2-(difluoromethyl)-1H-benzimidazol-1-yl]-N-{[1-(trans-4-fluorocyclohexyl)piperidin-4-yl]methyl}-6-(morpholin-4-yl)pyrimidin-2-amine dihydrochloride]	8	13000	73	2.1
CC(C)(O)CNC12CCC(CNc3nc(N4CCOCC4)cc(-n4c(C(F)F)nc5ccccc54)n3)(CC1)CC2 [Example 85, 1-({4-[({4-[2-(difluoromethyl)-1H-benzimidazol-1-yl]-6-(morpholin-4-yl)pyrimidin-2-yl}amino)methyl]bicyclo[2.2.2]oct-1-yl}amino)-2-methylpropan-2-ol]	21	5500	–	2.6
CN(CC(C)(C)O)C12CCC(CNc3nc(N4CCOCC4)cc(-n4c(C(F)F)nc5ccccc54)n3)(CC1)CC2 [Example 121]	13	4900	–	2
Cc1ccc2nc(C(F)F)n(-c3cc(N4CCOCC4)nc(NC[C@H]4CC[C@H](N5CCOCC5)CC4)n3)c2c1 [Example 132]	12	> 10000	–	1.5
O=C(CNC1CCCC1)N[C@H]1CC[C@H](Oc2cc(-n3c(C(F)F)nc4ccccc43)nc(N3CCOCC3)n2)CC1 [Example 134]	4.7	6600	–	3.4
O=C(CNC1CCOCC1)N[C@H]1CC[C@H](Oc2cc(-n3c(C(F)F)nc4ccccc43)nc(N3CCOCC3)n2)CC1 [Example 136]	4	> 10000	–	1.7
CC1(NCC(=O)N[C@H]2CC[C@H](Oc3cc(-n4c(C(F)F)nc5ccccc54)nc(N4CCOCC4)n3)CC2)CC1 [Example 137]	5.2	> 10000	–	4.6
CCOC(=O)N1CCN(c2ccc(CNc3nc(N4CCOCC4)cc(-n4c(C(F)F)nc5ccccc54)n3)cc2)CC1 [Example 158]	11	6700	–	10
FC(F)c1nc2ccccc2n1-c1cc(N2CCOCC2)nc(NCC2CCN(C3CCCCC3)CC2)n1 [Example 193]	4.9	8200	–	4.1
NC1(C(=O)N[C@H]2CC[C@H](Oc3cc(-n4c(C(F)F)nc5ccccc54)nc(N4CCOCC4)n3)CC2)CCC1 [Example 215]	13	> 10000	–	6.7
C[C@@H]1C[C@@H](N2CCC(CNc3nc(N4CCOCC4)cc(-n4c(C(F)F)nc5ccccc54)n3)CC2)C[C@H](C)O1 [Example 224]	3.3	7300	–	1.5
COC(=O)N[C@H]1CCN([C@H]2CC[C@H](Nc3nc(N4CCOCC4)cc(-n4c(C(F)F)nc5ccccc54)n3)CC2)C1=O [Example 248, methyl{(3S)-1-[trans-4-({4-[2-(difluoromethyl)-1H-benzimidazol-1-yl]-6-(morpholin-4-yl)pyrimidin-2-yl}amino)cyclohexyl]-2-oxopyrrolidin-3-yl}carbamate]	34	720	–	1.4
COC(=O)N[C@@H]1CCN([C@H]2CC[C@H](Oc3cc(-n4c(C(F)F)nc5ccccc54)nc(N4CCOCC4)n3)CC2)C1=O [Example 389]	11	> 10000	–	4.4
CN1CCC(CNc2nc(N3CCOCC3)nc(-n3c(C(F)F)nc4ccccc43)n2)CC1 [Example A4]	31	730	58	–

Further lines, with some results ahead:

IC50 (human PI3Kδ enzyme) [nM]	IC50 (Human PI3Kα) [nM]	Structure (SMILES)	inhibitory activity (IL-2 production inhibition rate) (IL-2 production) [%]	IC50 [1] [nM]
14	> 3000	CS(=O)(=O)N1CCC(N2CCC(CNc3nc(N4CCOCC4)cc(-n4c(C(F)F)nc5ccccc54)n3)CC2)CC1 [Example 34]	72	–
4.9	> 10000	COC(=O)N[C@H]1CCN([C@H]2CC[C@H](Oc3cc(-n4c(C(F)F)nc5ccccc54)nc(N4CCOCC4)n3)CC2)C1=O [Example 87, methyl{(3S)-1-[trans-4-({6-[2-(difluoromethyl)-1H-benzimidazol-1-yl]-2-(morpholin-4-yl)pyrimidin-4-yl}oxy)cyclohexyl]-2-oxopyrrolidin-3-yl}carbamate]	–	3.5
16	> 10000	CC(=O)N[C@H]1CCN([C@H]2CC[C@H](Oc3cc(-n4c(C(F)F)nc5ccccc54)nc(N4CCOCC4)n3)CC2)C1=O [Example 99]	–	2.5
3	8000	O=C(CNC1CCCCC1)N[C@H]1CC[C@H](Oc2cc(-n3c(C(F)F)nc4ccccc43)nc(N3CCOCC3)n2)CC1 [Example 135]	–	2.5
4.1	> 10000	FC(F)c1nc2ccccc2n1-c1cc(N[C@H]2C[C@@H]3C[C@H](N4CCOCC4)C[C@@H]3C2)nc(N2CCOCC2)n1 [Example 195]	–	3
4.8	> 10000	CN(CC(=O)NC1CCC(Oc2cc(-n3c(C(F)F)nc4ccccc43)nc(N3CCOCC3)n2)CC1)C1CCC1 (stereo not drawn) [Example 196]	–	3.6
13	> 10000	NC1(C(=O)N[C@H]2CC[C@H](Oc3cc(-n4c(C(F)F)nc5ccccc54)nc(N4CCOCC4)n3)CC2)CCCC1 [Example 216]	–	5.7
24	> 10000	CCOC(=O)N[C@@H]1CCN([C@H]2CC[C@H](Oc3cc(-n4c(C(F)F)nc5ccccc54)nc(N4CCOCC4)n3)CC2)C1=O [Example 423]	–	3.1
48	1400	COC(=O)N[C@@H]1CCN([C@H]2CC[C@H](Nc3nc(N4CCOCC4)cc(-n4c(C(F)F)nc5ccccc54)n3)CC2)C1=O [Example 441]	–	1.8
